Measurements as given in patent US20110251135A1, “INHIBITORS OF PERITONEAL SEEDING OF CANCER CELLS” (University of Utah Research Foundation, priority 2008, published 2011).
Entries after “also recorded” stand apart in the source; their conditions may differ.

Columns and labels:
[1] = test system: HCT-116 cells; assay: Intraabdominal seeding model, intraperitoneal injection of colon cancer cells into athymic mice (21 days); assay type: in vivo, mouse; conditions: HCT-116 IP in athymic mice; after 21 days; regardless of vehicle or BAY 11-7085
From the text: FIG. 6 is a group of photographs showing an intraabdominal seeding model. FIGS. 6A, B, C show tumor implants of the liver of three athymic mice 21 days after receiving intraperitoneal injections of HT-29 cells. The mice were pretreated and treated for a total of 21 days with DMSO twice weekly. […] The mouse was pretreated and treated for a total of 21 days with DMSO twice weekly. FIG. 6E is a micrograph showing tumor invasion through the liver capsule. This section was obtained from the tumor implant from the mouse in FIG. 6A. […] FIG. 6G, (liver), FIG. 6H, (abdominal wall), and FIG. 6I, (intestinal) show tumor implants in three athymic mice 21 days after receiving intraabdominal injections of HCT-116 cells. All of the mice were treated with 5 mg/kg of BAY 11-7085 twice weekly.
HT-29 and HCT-116 cells were harvested in 0.25% trypsin-PBS-EDTA, washed once in media and PBS, and resuspended in PBS at 1 million cells per 200 μL. […] Subcutaneous tumor sizes were determined by measuring the length and width with calipers. […]
During colorectal cancer surgery, seeding of the peritoneal cavity by tumor cells with tumor cell implantation of the peritoneal surfaces can occur. Seeding results from the transient suspension of cancer cells, through a loss of adhesion either naturally ro because of surgical displacement, followed by readhesion to other tissues. […]

[2] = test system: IκB phosphorylation and TNFα-induced NF-κB activation; conditions: Pierce et al., J Biol Chem 272:21096-103, 1997; cited from earlier work
[3] = test system: NF-κB; assay: NF-κB electrophoretic mobility shift assay (EMSA), nuclear lysates of treated HT-29 cells; assay type: cell-based, human; conditions: 10 μM, 3 and 6 hour incubations
[4] = test system: NF-κB; assay: NF-κB binding activity assay (TRANS-AM) in HT-29 cells; assay type: cell-based, human
Experimental: The transiently suspended cells were lysed and allowed to bind to DNA oligonucleotides, containing the NF-κB consensus binding site, that were immobilized to 96-well plates. NF-κB protein bound to the oligonucleotides was detected by an antibody to the p65 subunit that only recognized p65 that is bound to DNA. The positive control was HeLa cells that were stimulated with TNFα. A control was performed using excess free NF-κB oligonucleotides (Competitor). […] NF-κB binding activity was determined by the TransAM assay as in FIG. 5A. […] The data shown represent typical results of three separate experiments. […] An immunoblot for COX-2 was performed.
Activation of NF-κB was also determined using the TRANS-AM™ assay (Active Motif, Carlsbad, Calif.) per the manufacturer's instructions. (Renard et al., “Development of a sensitive multi-well colorimetric assay for active NF-κB,” Nucleic Acids Res 29, E21, 2001). Briefly, cell monolayers on 60 mm dishes were washed with ice-cold PBS and removed by incubating in trypsin-PBS or scraping. The cells were centrifuged for 10 minutes at 1,000 rpm at 4° C. and resuspended for 10 minutes in 100 μL of 4° C. lysis buffer (20 mM HEPES (pH 7.5), 350 mM NaCl, 20% glycerol, 1% Igepal-CA630, 1 mM MgCl2, 0.5 mM EDTA, 0.1 mM EGTA, 1 μL of 1 M dithiothreitol and 10 μL of protease inhibitor cocktail (proprietary) per mL of lysis buffer). The lysates were centrifuged for 20 minutes at 14,000 g at 4° C. Lysates containing 5 μg of total protein were added to 20 μL of lysis buffer per well in 96-well dishes containing immobilized oligonucleotides corresponding to the NF-κB consensus DNA binding site (SEQ ID NO:2) (5′-[…]-3′). […] 100 μL of stop solution (0.5M H2SO4) was added to each well after which the absorbance was determined on a plate spectrophotometer at 450 nm. Specificity of binding was determined using 200-fold excess wildtype NF-κB oligonucleotides added at the time the cell lysates were added to the wells.
The same NF-κB binding assay was used to determine whether NF-κB inhibitors could diminish the activation of NF-κB by readhesion. […]

Structure (SMILES): CC(C)(C)c1ccc(S(=O)(=O)/C=C/C#N)cc1 [BAY 11-7085, (2E)-3-[4-(tertiarybutylphenyl)sulfonyl]-2-propenenitrile]
- metastases of parietal and visceral peritoneum [1]: clear evidence of metastases
- IκB phosphorylation and TNFα-induced NF-κB activation [2]: inhibit IκB phosphorylation and TNFα-induced NF-κB activation
- inhibition of NF-κB activity (EMSA) [3]: more profound inhibition of NF-κB activity
- constitutive NF-κB activation in adherent cells ([4]; adherent cells, increasing concentrations, up to 50 μM, 8 hours): relatively unaffected; also recorded: could not be inhibited
- NF-κB activation induced by readhesion of transiently suspended colon cancer cells ([4]; as little as 10 μM BAY 11-7085): almost totally inhibited
- NF-κB activation caused by readhesion (TRANS-AM) ([4]; transiently suspended HT-29, increasing concentrations, 8 hours): dose-related inhibition of this NF-κB activation
